Data taken from ChEMBL document CHEMBL6096638, “Design, synthesis and biological evaluation of novel TMPRSS2-PROTACs with florosubstituted 4-guanidino-N-phenylbenzamide derivative ligands” (Bioorg Med Chem, 2024).
Calls of active or inactive are those of the source. The rule behind the calls is not given here.

Legend:
Calu-3 [1] = experiment: Antiproliferative activity against human Calu-3 cells assessed as inhibition of cell growth at 20 uM incubated for 48 hrs by CCK-8 assay relative to control; type: functional
HT-29 [2] = experiment: Antiproliferative activity against human HT-29 cells assessed as inhibition of cell growth at 20 uM incubated for 48 hrs by CCK-8 assay relative to control; type: functional
DU-145 [3] = experiment: Antiproliferative activity against human DU-145 cells assessed as inhibition of cell growth at 20 uM incubated for 48 hrs by CCK-8 assay relative to control; type: functional
DU-145 [4] = experiment: Antiproliferative activity against human DU-145 cells assessed as inhibition of cell growth incubated for 48 hrs by CCK-8 assay; type: functional, cell-based; conditions: DU-145, 48 h
HT-29 [5] = experiment: Antiproliferative activity against human HT-29 cells assessed as inhibition of cell growth incubated for 48 hrs by CCK-8 assay; type: functional, cell-based; conditions: HT-29, 48 h
Calu-3 [6] = experiment: Antiproliferative activity against human Calu-3 cells assessed as inhibition of cell growth incubated for 48 hrs by CCK-8 assay; type: functional, cell-based; conditions: Calu-3, 48 h
MDA-MB-231 = experiment: Antiproliferative activity against human MDA-MB-231 cells assessed as inhibition of cell growth incubated for 48 hrs by CCK-8 assay; type: functional, cell-based; conditions: MDA-MB-231, 48 h
AGS = experiment: Antiproliferative activity against human AGS cells assessed as inhibition of cell growth incubated for 48 hrs by CCK-8 assay; type: functional, cell-based
PC-3 = experiment: Antiproliferative activity against human PC-3 cells assessed as inhibition of cell growth incubated for 48 hrs by CCK-8 assay; type: functional, cell-based; conditions: PC-3, 48 h
MRC5 = experiment: Antiproliferative activity against human MRC5 cells assessed as inhibition of cell growth incubated for 48 hrs by CCK-8 assay; type: functional, cell-based; conditions: MRC5, 48 h
SK-N-AS = experiment: Antiproliferative activity against human SK-N-AS cells assessed as inhibition of cell growth incubated for 48 hrs by CCK-8 assay; type: functional, cell-based
A-375 = experiment: Antiproliferative activity against human A-375 cells assessed as inhibition of cell growth incubated for 48 hrs by CCK-8 assay; type: functional, cell-based; conditions: A-375, 48 h
786-0 = experiment: Antiproliferative activity against human 786-0 cells assessed as inhibition of cell growth incubated for 48 hrs by CCK-8 assay; type: functional, cell-based; conditions: 786-0, 48 h
NCI-H1299 = experiment: Antiproliferative activity against human NCI-H1299 cells assessed as inhibition of cell growth incubated for 48 hrs by CCK-8 assay; type: functional, cell-based; conditions: NCI-H1299, 48 h
SH-SY5Y = experiment: Antiproliferative activity against human SH-SY5Y cells assessed as inhibition of cell growth incubated for 48 hrs by CCK-8 assay; type: functional, cell-based
K562 = experiment: Antiproliferative activity against human K562 cells assessed as inhibition of cell growth incubated for 48 hrs by CCK-8 assay; type: functional, cell-based; conditions: K562, 48 h
CWR22R = experiment: Antiproliferative activity against human 22Rv1 cells assessed as inhibition of cell growth incubated for 48 hrs by CCK-8 assay; type: functional, cell-based; conditions: 22Rv1, 48 h
VCaP = experiment: Antiproliferative activity against human VCaP cells assessed as inhibition of cell growth incubated for 48 hrs by CCK-8 assay; type: functional, cell-based
A549 = experiment: Antiproliferative activity against human A549 cells assessed as inhibition of cell growth incubated for 48 hrs by CCK-8 assay; type: functional, cell-based; conditions: A549, 48 h
HepG2 = experiment: Antiproliferative activity against human HepG2 cells assessed as inhibition of cell growth incubated for 48 hrs by CCK-8 assay; type: functional, cell-based; conditions: HepG2, 48 h
MCF7 = experiment: Antiproliferative activity against human MCF7 cells assessed as inhibition of cell growth incubated for 48 hrs by CCK-8 assay; type: functional, cell-based; conditions: MCF7, 48 h

Compound | inhibition (Calu-3 [1]) | inhibition at 20 µM (HT-29 [2]) [%] | inhibition at 20 µM (DU-145 [3]) [%] | also measured
COc1cc(C(=O)Nc2cccc(COCCOCCOCCOC(=O)N[C@H](C(=O)N3C[C@H](O)C[C@H]3C(=O)NCc3ccc(-c4scnc4C)cc3)C(C)(C)C)c2)ccc1NC(=N)N | inactive | 30.1 | 8.88 | 
Cc1ncsc1-c1ccc(CNC(=O)[C@@H]2C[C@@H](O)CN2C(=O)[C@@H](NC(=O)CN2CCC(CN3CCN(c4ccc(NC(=O)c5ccc(NC(=N)N)cc5)cc4)CC3)CC2)C(C)(C)C)cc1 | inactive | 35.5 | 6.8 | 
COc1cc(C(=O)Nc2ccc(CC(=O)NCCCCCCC(=O)N[C@H](C(=O)N3C[C@H](O)C[C@H]3C(=O)NCc3ccc(-c4scnc4C)cc3)C(C)(C)C)cc2)ccc1NC(=N)N | inactive | 31.6 | 8.05 | 
COc1cc(C(=O)Nc2ccc(CC(=O)NCCCCCCCC(=O)N[C@H](C(=O)N3C[C@H](O)C[C@H]3C(=O)NCc3ccc(-c4scnc4C)cc3)C(C)(C)C)cc2)ccc1NC(=N)N | inactive | 31.6 | 11.2 | 
COc1cc(C(=O)Nc2ccc(CC(=O)Nc3ccc(CC(=O)NCCCCCCNc4cccc5c4C(=O)N(C4CCC(=O)NC4=O)C5=O)cc3)cc2)ccc1NC(=N)N (configuration not stated) | inactive | 32.7 | 16.5 | 
Cc1ncsc1-c1ccc(CNC(=O)[C@@H]2C[C@@H](O)CN2C(=O)[C@@H](NC(=O)COCCOCCOCCN2CCN(c3ccc(NC(=O)c4ccc(NC(=N)N)cc4)cc3)CC2)C(C)(C)C)cc1 | inactive | 14.4 |  | inhibition (DU-145 [3]): inactive
N=C(N)Nc1ccc(C(=O)Nc2ccc(CC(=O)N3CCC(CN4CCN(CCCNc5ccc6c(c5)C(=O)N(C5CCC(=O)NC5=O)C6=O)CC4)CC3)cc2)cc1 (configuration not stated) |  | 37.4 | 16.8 | inhibition at 20 µM (Calu-3 [1]): 5.77%
COc1cc(C(=O)Nc2ccc(CC(=O)NCCCCCC(=O)Nc3cccc4c3CN(C3CCC(=O)NC3=O)C4=O)cc2)ccc1NC(=N)N (configuration not stated) | inactive | 18.9 | 9.05 | 
Cc1ncsc1-c1ccc(CNC(=O)[C@@H]2C[C@@H](O)CN2C(=O)[C@@H](NC(=O)CN2CCN(c3ccc(NC(=O)c4ccc(NC(=N)N)cc4F)cc3)CC2)C(C)(C)C)cc1 |  | 34.4 | 14.4 | inhibition at 20 µM (Calu-3 [1]): 10.3%
COc1cc(C(=O)Nc2ccc(CC(=O)N3CCC(CN4CCN(c5ccc6c(c5)C(=O)N(C5CCC(=O)NC5=O)C6=O)CC4)CC3)cc2)ccc1NC(=N)N (configuration not stated) | inactive | 37.7 | 14.6 | 
N=C(N)Nc1ccc(C(=O)Nc2ccc(CC(=O)NCCCCCC(=O)N3CCN(c4ccc5c(c4)C(=O)N(C4CCC(=O)NC4=O)C5=O)CC3)cc2)cc1 (configuration not stated) | inactive | 22.4 | 5.82 | 
Cc1ncsc1-c1ccc(CNC(=O)[C@@H]2C[C@@H](O)CN2C(=O)[C@@H](NC(=O)CN2CCN(c3ccc(NC(=O)c4ccc(NC(=N)N)cc4)cc3)CC2)C(C)(C)C)cc1 | inactive | 29.7 | 9.51 | 
COc1cc(C(=O)Nc2ccc(N3CCN(CC(=O)N[C@H](C(=O)N4C[C@H](O)C[C@H]4C(=O)NCc4ccc(-c5scnc5C)cc4)C(C)(C)C)CC3)cc2)ccc1NC(=N)N | inactive | 30.7 | 6.76 | 
COc1cc(C(=O)Nc2ccc(N3CCN(CC4CCN(CC(=O)N[C@H](C(=O)N5C[C@H](O)C[C@H]5C(=O)NCc5ccc(-c6scnc6C)cc5)C(C)(C)C)CC4)CC3)cc2)ccc1NC(=N)N | inactive | 42.3 |  | inhibition (DU-145 [3]): inactive
COc1cc(C(=O)Nc2ccc(CC(=O)Nc3ccc(N4CCN(CC5CCN(CC(=O)N[C@H](C(=O)N6C[C@H](O)C[C@H]6C(=O)NCc6ccc(-c7scnc7C)cc6)C(C)(C)C)CC5)CC4)cc3)cc2)ccc1NC(=N)N |  | 18.4 | 5.06 | inhibition at 20 µM (Calu-3 [1]): 5.66%
CC(=O)O[C@H]1C(=O)[C@@]2(C)[C@H]([C@H](OC(=O)c3ccccc3)[C@]3(O)C[C@H](OC(=O)[C@H](O)[C@@H](NC(=O)c4ccccc4)c4ccccc4)C(C)=C1C3(C)C)[C@]1(OC(C)=O)CO[C@@H]1C[C@@H]2O [PACLITAXEL] |  |  |  | IC50 (DU-145 [4]): 0.01 µM; IC50 (HT-29 [5]): 0.01 µM; IC50 (Calu-3 [6]): 37.2 µM; IC50 (MDA-MB-231): 0.06 µM; IC50 (AGS): 0.01 µM; IC50 (PC-3): 7.56 µM; IC50 (MRC5): 0.11 µM; IC50 (SK-N-AS): 0.01 µM; IC50 (A-375): 0.01 µM; IC50 (786-0): 0.08 µM; IC50 (NCI-H1299): 1.15 µM; IC50 (SH-SY5Y): 0.01 µM; IC50 (K562): 0.01 µM; IC50 (CWR22R): 0.04 µM; IC50 (VCaP): 5.54 µM
COc1cc(C(=O)Nc2ccc(CC(=O)NCCCCCCNc3cccc4c3C(=O)N(C3CCC(=O)NC3=O)C4=O)cc2)ccc1NC(=N)N (configuration not stated) | inactive | 21.1 | 10.5 | 
Cc1ncsc1-c1ccc(CNC(=O)[C@@H]2C[C@@H](O)CN2C(=O)[C@@H](NC(=O)COCCOCCOCCN2CCN(c3cccc(NC(=O)c4ccc(NC(=N)N)cc4)c3)CC2)C(C)(C)C)cc1 | inactive | 23.8 | 15.3 | 
Cc1ncsc1-c1ccc(CNC(=O)[C@@H]2C[C@@H](O)CN2C(=O)[C@@H](NC(=O)OCCOCCOCCOCc2cccc(NC(=O)c3ccc(NC(=N)N)cc3)c2)C(C)(C)C)cc1 | inactive | 15.1 | 13.7 | 
Cc1ncsc1-c1ccc(CNC(=O)[C@@H]2C[C@@H](O)CN2C(=O)[C@@H](NC(=O)CN2CCC(CN3CCN(c4ccc(NC(=O)Cc5ccc(NC(=O)c6ccc(NC(=N)N)cc6F)cc5)cc4)CC3)CC2)C(C)(C)C)cc1 | inactive | 37.3 | 5.64 | 
Cc1ncsc1-c1ccc(CNC(=O)[C@@H]2C[C@@H](O)CN2C(=O)[C@@H](NC(=O)CN2CCC(CN3CCN(c4ccc(NC(=O)c5ccc(NC(=N)N)cc5F)cc4)CC3)CC2)C(C)(C)C)cc1 |  | 91.9 | 56.9 | inhibition at 20 µM (Calu-3 [1]): 47.5%; IC50 (DU-145 [4]): 11.2 µM; IC50 (HT-29 [5]): 3.83 µM; IC50 (Calu-3 [6]): 21.4 µM; IC50 (A549): 35.1 µM; IC50 (MRC5): > 40 µM
Cc1ncsc1-c1ccc(CNC(=O)[C@@H]2C[C@@H](O)CN2C(=O)[C@@H](NC(=O)CN2CCC(CN3CCN(c4ccc(NC(=O)Cc5ccc(NC(=O)c6ccc(NC(=N)N)cc6)cc5)cc4)CC3)CC2)C(C)(C)C)cc1 | inactive | 25.9 | 5.63 | 
N=C(N)Nc1ccc(C(=O)Oc2ccc3cc(C(=N)N)ccc3c2)cc1 [NAFAMOSTAT] |  |  |  | IC50 (DU-145 [4]): > 40 µM; IC50 (HepG2): > 40 µM; IC50 (HT-29 [5]): > 40 µM; IC50 (Calu-3 [6]): 37.9 µM; IC50 (A549): > 40 µM; IC50 (MDA-MB-231): > 40 µM; IC50 (AGS): > 40 µM; IC50 (PC-3): 39.9 µM; IC50 (MRC5): > 40 µM; IC50 (SK-N-AS): > 40 µM; IC50 (A-375): > 40 µM; IC50 (786-0): > 40 µM; IC50 (NCI-H1299): 19.2 µM; IC50 (SH-SY5Y): 37.1 µM; IC50 (K562): > 40 µM; IC50 (MCF7): > 40 µM; IC50 (CWR22R): > 40 µM; IC50 (VCaP): > 40 µM
COc1cc(C(=O)Nc2ccc(CC(=O)NCCCCCC(=O)N[C@H](C(=O)N3C[C@H](O)C[C@H]3C(=O)NCc3ccc(-c4scnc4C)cc3)C(C)(C)C)cc2)ccc1NC(=N)N | inactive | 20.5 | 7.56 | 
COc1cc(C(=O)Nc2ccc(CC(=O)NCCCCCC(=O)N3CCN(c4ccc5c(c4)C(=O)N(C4CCC(=O)NC4=O)C5=O)CC3)cc2)ccc1NC(=N)N (configuration not stated) | inactive | 7.56 | 7.04 | 
